Results: patent US7803792B2, “Quaternary ammonium compounds” (Asahi Kasei Pharma Corporation, priority 2002, dated 2010)

Legend:
[1] = system: bile acid loaded rats without partial ligation surgery; test: Cholestasis-caused hepatopathy model, bile acid loading without partial ligation, protocol B (Test Example 5); format: in vivo, rat; settings: 0.1 mg/kg twice a day 3.5 days, distilled water, average ± standard error
Protocol: “Cholestasis-Caused Hepatopathy” Model (Bile Duct Partial Ligation Model)
The “cholestasis-caused hepatopathy” model by partial ligation surgery of bile duct in this test example was handled by referring to the method by Kanno et al. [Kanzo (Liver) 43 Suppl (1): A126, 2002].
That is, the abdomen of a 7 to 10 weeks old SD (IGS) male rat was cut open under anesthesia with pentobarbital and partial ligation surgery of the bile duct was carried out. A blood sample was taken from the femoral vein before the surgery and this was taken as pre-administration value. The test compound and 200 mg/kg of bile acid were forcibly orally administered twice a day for 3.5 days from the next day of the surgery (protocol A). The test compound and 200 mg/kg of bile acid were forcibly orally administered twice a day for 3.5 days without carrying out the partial ligation surgery (protocol B). In both the cases, the test compound was dissolved or suspended in distilled water or an aqueous solution of 1% HCO60 (manufactured by NIPPON CHEMICALS COMPANY, LTD.). […] Moreover, to consider the influence of the surgery, a pseudo operation group (a Sham group) was established as necessary. After 6 hours from the administration of the drug on the last day of the test, a blood sample was taken from the abdominal aorta and AST (GOT), ALT (GPT), and ALP in the blood were measured by using a measurement kit (GOTII-HA TEST WAKO, GPTII-HA TEST WAKO, and ALKALINE PHOSPHER-HA TEST WAKO respectively, all manufactured by WAKO PURE CHEMICAL […], LTD.) with an auto analyzer (NITTECH ANALYZER SUPER Z818).

[2] = system: Na+ dependent amino acid transporter; test: In vitro assay on Na+ dependent amino acid transporter using Cos 7 cells (Test Example 10); format: cell-based; settings: [3H] alanine 8 μM, 37° C., 60 minutes, read-out: IC50 (μM) against alanine transporter
Protocol: In Vitro Assay of Effects of Compounds on Na^+ Dependent Amino Acid Transporter and Na^+ Dependent Water-Soluble Vitamin Transporter Using Cos 7 Cells
In this test example, the in vitro assays of the compound on various transporters using Cos 7 cells were carried out according to the method described in Published Translation of Japanese Patent Application No.10-503830.
That is, […] of Cos 7 cells were inoculated on a 24-well cell plate. Two days later, the cells were washed once with an assay buffer, Hank's buffer solution containing 25 mM glucose and with 10 mM HEPES (ph 7.4), and then the buffer was replaced by an assay buffer to which the test compound was added. After adding to this, [^3H] alanine (trade name; NET-348, manufactured by DAIICHI CHEMICAL CO., LTD.), [^3H] leucine (trade name: NET-460, manufactured by DAIICHI CHEMICAL CO., LTD.), [^3H] phenylalanine (trade name: MT903, MORAVEK), [^3H] methionine (trade name: MT862, MORAVEK), [^3H] lysine (trade name: MT909, MORAKEK), or [^3H] choline (trade name: TRK593, […] BIOSCIENCES CO., LTD.) to a final concentration of 8 μM, the mixture was incubated at 37° C. for 60 minutes to allow Cos 7 cells to incorporate them. […] Measurement of the radioactivity was carried out by introducing the lyzate in 4 ml of liquid scintillation cocktail, stirring the mixture well, and then measuring on a liquid scintillation counter. […]

CCCCC1(CCCC)CS(=O)(=O)c2ccc(N(C)C)cc2C(c2cccc(NC(=S)CCCCC[N+]34CCC(CC3)CC4)c2)N1.[Br-] (stereo not shown) [Example 1, 1-{5-[3-(3,3-Dibutyl-7-dimethylamino-1,1-dioxo-2,3,4,5-tetrahydro-1,4-benzothiazepin-5-yl)phenylthiocarbamoyl]pentyl}-1-azoniabicyclo[2.2.2]octane bromide]
ALT ([1]; control 82 ± 17): 53 ± 6 IU/L | AST ([1]; control 157 ± 35): 100 ± 2 IU/L | ALP ([1]; control 593 ± 77): 453 ± 50 IU/L | IC50 [2]: 33 µM
